Measurements taken from patent publication US20220313651A1, “INHIBITORS OF ZIKA VIRUS INFECTION” (priority 2019, published 2022).
Like-named read-outs stand apart in the source and are kept apart here.

How the values were obtained:
Type in all cases: cell-based, Zika virus (ZIKV)
ZIKV (PAN2016) = assay: Time-of-addition experiment, ZIKV PAN2016 in Vero E6 cells; details: for Inhibition of ZIKV infection, attachment: ZIKV and compound at 4° C. 1 h; for Inhibition of ZIKV infection, pretreatment of ZIKV: virus incubated with compound 37° C. 1 h before cells; for Inhibition of ZIKV infection, pretreatment of cells: cells incubated with compound 37° C. 1 h before ZIKV; for Inhibition of ZIKV infection, penetration (membrane fusion): cells with ZIKV at 4° C. 1 h; for Inhibition of ZIKV infection, penetration (membrane fusion) / Inhibition of ZIKV infection, post-entry stage: then compound 37° C. 1 h; for Inhibition of ZIKV infection, post-entry stage: cells with ZIKV at 37° C. 1 h; for inhibition at 7.5 µM: Zika virus
Procedure: FIG. 2A-K depicts a time-of-addition experiment to test the ability of the disclosed compounds to block ZIKV infection at different steps of the viral life cycle. […] FIG. 2B: Pretreatment of cells: cells were pre-incubated with one of the compounds at 37° C. for 1 h, and the unbound compounds were then removed, followed by addition of ZIKV and incubation of cells at 37° C. for 1 h. After removal of the unbound ZIKV, the cells were cultured and plaques and inhibition rate determined as in FIG. 2A. FIG. 2C: Blockage of ZIKV attachment: cells were incubated with ZIKV at 4° C. for 1 h (to allow ZIKV attachment but not fusion between ZIKV and cell membranes) in the presence of one of the compounds. After removal of the unbound ZIKV and compounds, the cells were cultured and plaques and inhibition rate determined. […] FIG. 2E: Blockage of ZIKV penetration (membrane fusion): cells were incubated with ZIKV at 4° C. for 1 h to allow ZIKV attachment. After removal of the unbound ZIKV, the cells were incubated with one of the compounds at 37° C. for 1 h to allow fusion of virus-cell membranes. After further removal of the unbound compounds, the cells were cultured and plaques and inhibition rate determined. FIG. 2F: Inhibition of post-entry stage: cells were incubated with ZIKV at 37° C. for 1 h (to allow ZIKV entry into the target cells). […] The percent inhibition was calculated based on the numbers of plaques in the presence or absence of serially diluted compounds. The data are expressed as mean±s.e.m. (n=2). The experiments were repeated three times with similar results.
Time-of-addition experiments were performed in Vero E6 cells, and six specific steps are shown as follows. 1) Step 1: Pretreatment of virus. […] After removal of the unbound compounds, ZIKV was incubated with cells at 37° C. for 1 h, followed by culturing cells at 37° C. for 4-5 days, and enumerating plaques. 2) Step 2: Pretreatment of cells. […] The unbound ZIKV was removed, and the cells were cultured and plaques enumerated as in Step 1. 3) Step 3: Attachment. […] After removal of the unbound ZIKV and compounds, the cells were cultured and plaques enumerated as in Step 1. 4) Step 4: Co-treatment. […] After removal of the unbound viruses and compounds, the cells were cultured and plaques enumerated as in Step 1. 5) Step 5: Fusion. Cells were incubated with ZIKV at 4° C. for 1 h for ZIKV attachment. […] The unbound compounds were removed, and the cells were cultured and plaques enumerated as in Step 1. 6) Step 6: Post-entry. Cells were incubated with ZIKV at 37° C. for 1 h for ZIKV entry. […] The unbound compounds were then removed, and the cells were cultured and enumerated for plaques as in Step 1. The data are expressed as mean % inhibition±s.e.m. (n=2). The percent inhibition was calculated based on the numbers of plaques in the presence or absence of the compounds. The experiments were repeated three times with similar results.
Time-of-addition experiments. were performed to identify mechanisms of the Z-medicaments against ZIKV infection. […] Specifically, the following six stages of ZIKV infection were tested: (a) Pretreatment of ZIKV (PAN2016, ˜2.5×10^3 PFU) with the Z-medicaments at 37° C. for 1 h before incubation with cells; (b) Pretreatment of cells with the Z-medicaments at 37° C. for 1 h before incubation with ZIKV (PAN2016, ˜100 PFU); (c) Co-treatment of cells, ZIKV (PAN2016, ˜300 PFU) and the Z-medicaments at 4° C. for 1 h; (d) Co-treatment of cells, ZIKV (PAN2016, ˜100 PFU) and the Z-medicaments at 37° C. for 1 h; (e) Pre-incubation of cells with ZIKV (PAN2016, ˜300 PFU) at 4° C. for 1 h and then incubation with the Z-medicaments at 37° C. for 1 h; and (f) Pre-incubation of ZIKV (PAN2016, ˜100 PFU) and cells at 37° C. for 1 h, followed by incubation with the Z-medicaments at 37° C. for 1 h. […]

ZIKV FLR strain = assay: Combinatorial effects of gossypol with other Z-medicaments, ZIKV FLR; details: for Fold of Enhancement / CI (combination index): ZIKV FLR; for Fold of Enhancement: IC50 alone / in mixture; for CI (combination index): named compound in combination with gossypol
Procedure: The unbound viruses and Z-medicaments were removed, and the cells were cultured at 37° C. for 4-5 days, followed by staining with 0.5% crystal violet. The Z-medicaments without combinations were used as controls. The IC50 of the Z-medicaments was calculated as described above.
The Z-medicaments were then analyzed for synergistic effects based on the combination index (CI) and IC50 values using the CalcuSyn program. Specifically, CI values <1 and >1 indicate synergy and antagonism, respectively. Synergy was further identified as five different categories: CI values <0.1, 0.1-0.3, 0.3-0.7, 0.7-0.85, and 0.85-0.90 indicate very strong synergism, strong synergism, synergism, moderate synergism, and slight synergism, respectively. Fold enhancement of anti-ZIKV potency is expressed as the ratio of molar concentrations of the Z-medicaments tested alone and in the mixture.

[1] = test system: ZIKV human strain R103451 (2015/Honduras); assay: Plaque reduction inhibition assay in Vero E6 cells, ZIKV R103451
Procedure: A plaque reduction inhibition assay was carried out to measure the inhibitory activity of Z-medicaments against infections of ZIKV and DENV. […] The compound-virus mixtures were then transferred to Vero E6 cells (10^5/well) and incubated at 37° C. for 1 h.

[2] = co-treatment of cells, gossypol 15 μM, curcumin 30 μM, digitonin 7.5 μM, conessine 30 μM, ST087010 15 μM
[3] = gossypol 15 μM, curcumin 30 μM, digitonin 7.5 μM, conessine 30 μM, ST087010 15 μM
[4] = Zika virus, Vero C1008, Vero E6 cells, Table 1, read-out: IC50 against ZIKV strain R103451

Structure (SMILES)	Inhibition of ZIKV infection, attachment (ZIKV (PAN2016); [2])	Inhibition of ZIKV infection, pretreatment of ZIKV (ZIKV (PAN2016); [3])	CI (combination index) (ZIKV FLR strain)	Inhibition of ZIKV infection, pretreatment of cells (ZIKV (PAN2016); [3])	Inhibition of ZIKV infection, penetration (membrane fusion) (ZIKV (PAN2016); [3])	Inhibition of ZIKV infection, post-entry stage (ZIKV (PAN2016); [3])	IC50 [1, 4]	also measured
C[C@H]1[C@H]2CC[C@H]3[C@@H]4CC=C5C[C@@H](N(C)C)CC[C@]5(C)[C@H]4CC[C@]23CN1C [Conessine, conessine]	very low, to no, effects	very low, to no, effects	0.85					Fold of Enhancement (ZIKV FLR strain; gossypol + conessine): 2.13
Cc1cc2c(C(C)C)c(O)c(O)c(/C=N/n3c(=O)[nH][nH]c3=O)c2c(O)c1-c1c(C)cc2c(C(C)C)c(O)c(O)c(/C=N/n3c(=O)[nH][nH]c3=O)c2c1O [ST087010]	< 40%	almost completely inhibited		no or little	no or little	< 20%		Inhibition of ZIKV infection, co-treatment of ZIKV and cells (ZIKV (PAN2016); co-treatment of cells, ZIKV and compound at 37° C. 1 h, gossypol 15 μM, curcumin 30 μM, digitonin 7.5 μM, conessine 30 μM, ST087010 15 μM): no or little; IC50 ([1]; Vero E6 cells, Table 7, gossypol derivatives, read-out: ZIKV strains IC50, R103451): 3.6 ± 0.07 µM
COc1cc(/C=C/C(=O)CC(=O)/C=C/c2ccc(O)c(OC)c2)ccc1O [Curcumin, curcumin]			0.49	low to no impact	low to no impact	low to no impact		Fold of Enhancement (ZIKV FLR strain; gossypol + curcumin): 3.84
Cc1cc2c(C(C)C)c(O)c(O)c(C=O)c2c(O)c1-c1c(C)cc2c(C(C)C)c(O)c(O)c(C=O)c2c1O [Gossypol, gossypol]							2.28 ± 0.1 µM	IC50 ([1]; Zika virus, Vero C1008, read-out: ZIKV strains IC50, R103451): 3.12 ± 0.38 µM; IC50 (ZIKV FLR strain; Zika virus, Vero C1008, read-out: IC50 Alone): 0.26 ± 0.01 µM
C[C@@H]1CC[C@@]2(OC1)O[C@H]1[C@@H](O)[C@H]3[C@@H]4CC[C@H]5C[C@@H](O[C@@H]6O[C@H](CO)[C@H](O[C@@H]7O[C@H](CO)[C@@H](O)[C@H](O[C@@H]8OC[C@@H](O)[C@H](O)[C@H]8O)[C@H]7O[C@@H]7O[C@H](CO)[C@H](O)[C@H](O[C@@H]8O[C@H](CO)[C@@H](O)[C@H](O)[C@H]8O)[C@H]7O)[C@H](O)[C@H]6O)[C@H](O)C[C@]5(C)[C@H]4CC[C@]3(C)[C@H]1[C@@H]2C [Digitonin, digitonin]		no effects	0.95				4.3 ± 0.43 µM	inhibition at 7.5 µM (ZIKV (PAN2016); Vero C1008, 1 h, read-out: Inhibition of ZIKV infection, penetration (membrane fusion)): 49 to 74%; inhibition at 7.5 µM (ZIKV (PAN2016); Vero C1008, 1 h, read-out: Inhibition of ZIKV infection, post-entry stage): 49 to 74%; inhibition at 7.5 µM (ZIKV (PAN2016); Vero C1008, read-out: Inhibition of ZIKV infection, pretreatment of cells): ≥ 94%; Fold of Enhancement (ZIKV FLR strain; gossypol + digitonin): 2.04
